Key:
[1] = Contact angle with water (hydrophobicity); format: physicochemical; conditions: 16 weeks at room temperature (20° C.) and at 40° C., against start value
Description: An advantageous property of the PGFEs for an additive in accordance with claim 1 which should be considered is the hydrophobicity, which can be determined by determining the contact angle. The determination of the hydrophobicity is carried out by determining the contact angle between the PGFE in the solid physical state and a droplet of purified water. According to Young's equation, cos θ=(γSV−γSL)/γLV, wherein γSL is the interfacial tension between the PGFE and water, γLV is the interfacial tension of the water droplet and γSV is the surface tension between the PGFE and the surrounding air. θ is the contact angle. Thus, the larger the contact angle θ, the higher is the surface tension between the PGFE and the water and the higher is the hydrophobicity of the PGFE under investigation. The contact angles for the proposed polyglycerol fatty acid esters also correlate with the HLB value which is often used in pharmaceutical technology, which is on a scale of 0 to 20 and provides information regarding the ratio of lipophilic to hydrophilic molecular fractions, wherein the hydrophilic fraction increases with increasing HLB value. […]

[2] = Lopes et al., J. Pharm. Sci. 104: 4257-4265, 2015; cited from earlier work

variation (deviation) of contact angle with water after 16 weeks [1]: 40 °
SMILES: CCCCCCCCCCCCCCCCCC(=O)OCC(COC(=O)CCCCCCCCCCCCCCCCC)OC(=O)CCCCCCCCCCCCCCCCC [glycerol tristearate]
increase in the crystal thickness after complete transformation of a- into b-modification [2]: approximately 67%

From patent publication US20210361581A1, “ADDITIVE FOR A POWDER MATERIAL INTENDED FOR COMPACTION INTO SHAPED BODIES” (IOI OLEO GMBH, priority 2018, published 2021)
